We go through 34 compounds from the supplement of paper PMC9103864.

For test [1], the system named is BMSC (primary human bone marrow mesenchymal stromal cells). Kind of test: drug sensitivity score (DSS); higher = more sensitive.
Test [2] shares this test system. Nature of the test: absolute EC50 for viability; higher = less sensitive.

The structures appear in SMILES notation. Bounds are passed on as bounds.

`CN(CC(=O)N(Cc1ccc(C2CCCCC2)cc1)c1ccc(C(=O)O)cc1)S(=O)(=O)c1c(F)c(F)c(F)c(F)c1F` [SH-4-54] yielded a drug sensitivity score in test [1] of 4. Besides, in test [2], the “absolute EC50 for viability” value was over 25 µM.

`CCc1c2c(nc3ccc(O)cc13)-c1cc3c(c(=O)n1C2)COC(=O)[C@]3(O)CC` [SN-38] came in with a drug sensitivity score in test [1] of 10. The “absolute EC50 for viability” value in test [2] was determined as 1.52 µM.

The compound `CC(C)(C)c1cnc(CSc2cnc(NC(=O)C3CCNCC3)s2)o1` [SNS-032] gave a drug sensitivity score in test [1] of 12.8. For the same compound, in test [2], the “absolute EC50 for viability” value is over 10 µM.

As for `Cc1cc2c(C(=O)NC[C@H](C)c3ccccc3)c(O)c(O)cc2c(O)c1-c1c(C)cc2c(C(=O)NC[C@H](C)c3ccccc3)c(O)c(O)cc2c1O` [Sabutoclax], the drug sensitivity score in test [1] was 5.6. Moreover, the “absolute EC50 for viability” value in test [2] stood at 7.71 µM.

With `CC[C@@H](C(=O)[C@@H](C)[C@@H](O)[C@H](C)[C@@H]1O[C@@H]([C@@H](CC)C(=O)O)CC[C@@H]1C)[C@H]1O[C@]2(C=C[C@@H](O)[C@]3(CC[C@@](C)([C@H]4CC[C@](O)(CC)[C@H](C)O4)O3)O2)[C@H](C)C[C@@H]1C` [Salinomycin], the drug sensitivity score in test [1] was found to be 16.8. Further, the “absolute EC50 for viability” value in test [2] came out at 1.53 µM.

As for `CC(C)n1nc(-c2ccc3oc(N)nc3c2)c2c(N)ncnc21` [Sapanisertib], the drug sensitivity score in test [1] worked out at 11.4. In test [2], the “absolute EC50 for viability” value came out at 0.0759 µM.

`CNC(=O)CN1CCC(Oc2cc3c(Nc4cccc(Cl)c4F)ncnc3cc2OC)CC1` [Sapitinib]: the drug sensitivity score in test [1] amounted to 0. For the same compound, the “absolute EC50 for viability” value in test [2] is over 1 µM.

As to `CN1CCN(CCOc2cc(OC3CCOCC3)c3c(Nc4c(Cl)ccc5c4OCO5)ncnc3c2)CC1` [Saracatinib], the drug sensitivity score in test [1] is 5. The “absolute EC50 for viability” value in test [2] is over 10 µM.

For `CC1=C2C[C@H]3[C@@H](CC[C@@H]4C[C@H](NS(C)(=O)=O)CC[C@@]43C)[C@@H]2CC[C@@]2(C1)O[C@@H]1C[C@H](C)CN[C@H]1[C@H]2C` [Saridegib], the drug sensitivity score in test [1] amounted to 0. In addition, the “absolute EC50 for viability” value in test [2] is over 10 µM.

In turn, `CC[C@H](CO)Nc1nc(NCc2ccccc2)c2ncn(C(C)C)c2n1` [Seliciclib] displayed a drug sensitivity score in test [1] of 0. For the same compound, the “absolute EC50 for viability” value in test [2] is over 10 µM.

Take `O=C(/C=C\n1cnc(-c2cc(C(F)(F)F)cc(C(F)(F)F)c2)n1)NNc1cnccn1` [Selinexor]: the drug sensitivity score in test [1] came out at 3.1. For the same compound, the “absolute EC50 for viability” value in test [2] was over 10 µM.

Consider `Cc1cc(F)c(C(=O)Nc2cccc(-c3nncn3C(C)C)n2)cc1-n1cnc(C2CC2)c1` [Selonsertib], for which the drug sensitivity score in test [1] was 0. In test [2], the “absolute EC50 for viability” value is over 1 µM.

`Cn1cnc2c(F)c(Nc3ccc(Br)cc3Cl)c(C(=O)NOCCO)cc21` [Selumetinib]: in test [1], the drug sensitivity score was determined as 4.9. Further, the “absolute EC50 for viability” value in test [2] is over 10 µM.

Consider `CN1CCN(C(=O)c2ccc3cc(CCNc4ncnc5ccc(C#N)cc45)ccc3c2)CC1` [Senexin B], for which the drug sensitivity score in test [1] is 0.3. In test [2], the “absolute EC50 for viability” value was over 1 µM.

For the compound `COCC[n+]1c2c(n(Cc3cnccn3)c1C)C(=O)c1ccccc1C2=O` [Sepantronium bromide], in test [1], the drug sensitivity score was found to be 25.4. The “absolute EC50 for viability” value in test [2] came to 0.0705 µM.

As for `Nc1nc2cc(-c3ccc4ncc(C(=O)N5CCOCC5)n4c3)ccc2o1` [Serabelisib], the drug sensitivity score in test [1] is 3.3. The “absolute EC50 for viability” value in test [2] is over 10 µM.

In the case of `O=C(O)c1ccc2c(c1)nc(Nc1cccc(Cl)c1)c1ccncc12` [Silmitasertib], in test [1], the drug sensitivity score worked out at 2.3. In addition, the “absolute EC50 for viability” value in test [2] is over 10 µM.

On to `CCC(C)(C)C(=O)O[C@H]1C[C@@H](C)C=C2C=C[C@H](C)[C@H](CC[C@@H]3C[C@@H](O)CC(=O)O3)[C@H]21` [Simvastatin], for which the drug sensitivity score in test [1] was determined as 2.4. Besides, in test [2], the “absolute EC50 for viability” value was over 10 µM.

`CO[C@H]1C[C@@H]2CC[C@@H](C)[C@@](O)(O2)C(=O)C(=O)N2CCCC[C@H]2C(=O)O[C@H]([C@H](C)C[C@@H]2CC[C@@H](O)[C@H](OC)C2)CC(=O)[C@H](C)/C=C(\C)[C@@H](O)[C@@H](OC)C(=O)[C@H](C)C[C@H](C)/C=C/C=C/C=C/1C` [Sirolimus] had a drug sensitivity score in test [1] of 4.2. In test [2], the “absolute EC50 for viability” value is over 0.1 µM.

As for `COCCNCc1ccc(-c2cc3nccc(Oc4ccc(NC(=O)C5(C(=O)Nc6ccc(F)cc6)CC5)cc4F)c3s2)nc1` [Sitravatinib], the drug sensitivity score in test [1] is 7.7. Also, the “absolute EC50 for viability” value in test [2] is over 2.5 µM.

`Cc1c(C(=O)Nc2ccc(N3C[C@@H](C)O[C@@H](C)C3)nc2)cccc1-c1ccc(OC(F)(F)F)cc1` [Sonidegib] yielded a drug sensitivity score in test [1] of 0. Further, the “absolute EC50 for viability” value in test [2] was over 10 µM.

Turning to `C=CCN(/C=C1/C(=O)O[C@H](COC)[C@@]2(C)C1=C(O)C(=O)C1=C2[C@H](OC(C)=O)C[C@]2(C)C(=O)CC[C@@H]12)CC=C` [Sonolisib], the drug sensitivity score in test [1] turned out to be 0. In test [2], the “absolute EC50 for viability” value was over 10 µM.

`CNC(=O)c1cc(Oc2ccc(NC(=O)Nc3ccc(Cl)c(C(F)(F)F)c3)cc2)ccn1` [Sorafenib]: in test [1], the drug sensitivity score was 0. Moreover, the “absolute EC50 for viability” value in test [2] was over 1 µM.

Take `CN1CCN(c2nc(C3=C(c4c[nH]c5ccccc45)C(=O)NC3=O)c3ccccc3n2)CC1` [Sotrastaurin]: in test [1], the drug sensitivity score was 2.8. Besides, in test [2], the “absolute EC50 for viability” value is over 10 µM.

Compound `C=CC(=O)Nc1cccc(Nc2nc(Nc3ccc(OCCOC)cc3)ncc2F)c1` [Spebrutinib] yielded a drug sensitivity score in test [1] of 1.2. Further, the “absolute EC50 for viability” value in test [2] was over 1 µM.

The compound `CC(C)n1cnc2c(NCCc3ccc(O)cc3)nc(-c3csc4ccccc34)nc21` [StemRegenin 1] showed a drug sensitivity score in test [1] of 0.4. In addition, the “absolute EC50 for viability” value in test [2] is over 10 µM.

`CCN(CC)CCNC(=O)c1c(C)[nH]c(/C=C2\C(=O)Nc3ccc(F)cc32)c1C` [Sunitinib] gave a drug sensitivity score in test [1] of 5.6. Besides, the “absolute EC50 for viability” value in test [2] was over 1 µM.

With `CC(C)(O)CC(=O)NCCn1ccc2ncnc(Nc3ccc(Oc4cccc(C(F)(F)F)c4)c(Cl)c3)c21` [TAK-285], in test [1], the drug sensitivity score is 0.4. Further, in test [2], the “absolute EC50 for viability” value was over 2.5 µM.

Consider `C[C@@H](NC(=O)c1ncnc(N)c1Cl)c1ncc(C(=O)Nc2cc(C(F)(F)F)c(Cl)cn2)s1` [TAK-580], for which the drug sensitivity score in test [1] came out at 5.7. Further, the “absolute EC50 for viability” value in test [2] is over 10 µM.

The compound `CCS(=O)(=O)c1cccc(-c2cc(C(=O)NC3CCN(C)CC3)c(C)c3[nH]c4ncc(C)cc4c23)c1` [TAK-901] had a drug sensitivity score in test [1] of 5.9. In test [2], the “absolute EC50 for viability” value came to 0.265 µM.

For `Cc1cccc(-c2[nH]c(CNc3ccccc3F)nc2-c2ccc3ncnn3c2)n1` [TEW-7197], the drug sensitivity score in test [1] was found to be 2.1. In addition, in test [2], the “absolute EC50 for viability” value was over 2.5 µM.

In the case of `Nc1nc(N)c2nc(-c3cccc(O)c3)c(-c3cccc(O)c3)nc2n1` [TG100-115], in test [1], the drug sensitivity score turned out to be 2.5. Further, the “absolute EC50 for viability” value in test [2] was over 10 µM.

Consider `CC(C)Oc1ccc(-c2nn([C@@H](C)c3oc4ccc(F)cc4c(=O)c3-c3cccc(F)c3)c3ncnc(N)c23)cc1F` [TGR-1202], for which the drug sensitivity score in test [1] came out at 0. In addition, the “absolute EC50 for viability” value in test [2] is over 2.5 µM.

Regarding `Cc1cc(C(C)Nc2ccccc2)c2nc(N3CCOCC3)cc(=O)n2c1` (stereo not drawn) [TGX-221], the drug sensitivity score in test [1] was determined as 0.3. In addition, the “absolute EC50 for viability” value in test [2] was over 10 µM.
